Assay [1] addresses T1, Rat mGlu2 (Rattus norvegicus, UniProt P31421).
T1 construct: expressed in transfected cells; host or cells: HEK-293 co-expressing GIRK channels
As to the kind of experiment: mGlu receptor in vitro assay, thallium flux through GIRK channels, rat mGlu2. It is filed as cell-based. Conditions: PAM potency with EC20 glutamate. The protocol: (§1) Human Embryonic Kidney (HEK-293) cell lines co-expressing rat mGlu receptors 2, 3, 4, 6, 7 or 8 and G protein-coupled inwardly-rectifying potassium (GIRK) channels were grown in Growth Media containing 45% DMEM, 45% F-12, 10% FBS, 20 mM HEPES, 2 mM L-glutamine, antibiotic/antimycotic, non-essential amino acids, 700 μg/mL G418, and 0.6 μg/ml puromycin at 37° C. in the presence of 5% CO2. […] All cell culture reagents were purchased from Invitrogen Corp. (Carlsbad, CA) unless otherwise noted. Calcium assays were used to assess activity of compounds at mGlu1 and mGlu5, as previously described in Engers et al (J. Med. Chem. 2009, 52, 4115-4118). Calcium assays at mGlu3 were performed as described for mGlu5 with the exception that TREx293 mGlu3 Gα15 cells were treated with tetracycline at 20 ng/mL for 20 h prior to assay.
(§2) Compound activity at the group II (mGlu2 and mGlu3) and group III (mGlu4, mGlu6, mGlu7, and mGlu8) was assessed using thallium flux through GIRK channels, a method that has been described in detail. Briefly, cells were plated into 384-well, black-walled, clear-bottomed poly-D-lysine-coated plates at a density of 15,000 cells/20 μL/well in DMEM containing 10% dialyzed FBS, 20 mM HEPES, and 100 units/mL penicillin/streptomycin (assay media). Plated cells were incubated overnight at 37° C. in the presence of 5% CO2. The following day, the medium was exchanged from the cells to assay buffer [Hanks' balanced salt solution (Invitrogen) containing 20 mM HEPES, pH 7.3] using an ELX405 microplate washer (BioTek), leaving 20 μL/well, followed by the addition of 20 μL/well FluoZin2-AM (330 nM final concentration) indicator dye (Invitrogen; prepared as a stock in DMSO and mixed in a 1:1 ratio with Pluronic acid F-127) in assay buffer. Cells were incubated for 1 h at room temperature, and the dye exchanged to assay buffer using an ELX405, leaving 20 μL/well. Test compounds were diluted to 2 times their final desired concentration in assay buffer (0.3% DMSO final concentration). Agonists were diluted in thallium buffer [125 mM sodium bicarbonate (added fresh the morning of the experiment), 1 mM magnesium sulfate, 1.8 mM calcium sulfate, 5 mM glucose, 12 mM thallium sulfate, and 10 mM HEPES, pH 7.3] at 5 times the final concentration to be assayed. Cell plates and compound plates were loaded onto a kinetic imaging plate reader (FDSS 6000 or 7000; Hamamatsu Corporation, Bridgewater, NJ). Appropriate baseline readings were taken (10 images at 1 Hz; excitation, 470±20 nm; emission, 540±30 nm) and test compounds were added in a 20 μL volume and incubated for approximately 2.5 min before the addition of 10 μL of thallium buffer with or without agonist. After the addition of agonist, data were collected for approximately an additional 2.5 min. Data were analyzed using Excel (Microsoft Corp, Redmond, WA). The slope of the fluorescence increase beginning 5 s after thallium/agonist addition and ending 15 s after thallium/agonist addition was calculated, corrected to vehicle and maximal agonist control slope values, and plotted in using either XLfit (ID Business Solutions Ltd) or Prism software (GraphPad Software, San Diego, CA) to generate concentration-response curves. Potencies were calculated from fits using a four-point parameter logistic equation. For concentration-response curve experiments, compounds were serially diluted 1:3 into 10-point concentration response curves and were transferred to daughter plates using an Echo acoustic plate reformatter (Labcyte, Sunnyvale, CA). Test compounds were applied and followed by EC20 concentrations of glutamate.

The target of assay [2] is T2, Rat mGlu3 (Rattus norvegicus, UniProt P31422).
T2 construct: expressed in transfected cells; host or cells: HEK-293 co-expressing GIRK channels
Nature of the assay: mGlu receptor in vitro assay (thallium flux through GIRK channels / calcium assay), rat mGlu3. The format is cell-based. The conditions noted are these: PAM potency with EC20 glutamate. How it is done: as §1, §2

The term EC50 denotes the concentration giving half of the maximal effect.

Some results are limits rather than exact numbers.

T1 sequence (P31421 19-872): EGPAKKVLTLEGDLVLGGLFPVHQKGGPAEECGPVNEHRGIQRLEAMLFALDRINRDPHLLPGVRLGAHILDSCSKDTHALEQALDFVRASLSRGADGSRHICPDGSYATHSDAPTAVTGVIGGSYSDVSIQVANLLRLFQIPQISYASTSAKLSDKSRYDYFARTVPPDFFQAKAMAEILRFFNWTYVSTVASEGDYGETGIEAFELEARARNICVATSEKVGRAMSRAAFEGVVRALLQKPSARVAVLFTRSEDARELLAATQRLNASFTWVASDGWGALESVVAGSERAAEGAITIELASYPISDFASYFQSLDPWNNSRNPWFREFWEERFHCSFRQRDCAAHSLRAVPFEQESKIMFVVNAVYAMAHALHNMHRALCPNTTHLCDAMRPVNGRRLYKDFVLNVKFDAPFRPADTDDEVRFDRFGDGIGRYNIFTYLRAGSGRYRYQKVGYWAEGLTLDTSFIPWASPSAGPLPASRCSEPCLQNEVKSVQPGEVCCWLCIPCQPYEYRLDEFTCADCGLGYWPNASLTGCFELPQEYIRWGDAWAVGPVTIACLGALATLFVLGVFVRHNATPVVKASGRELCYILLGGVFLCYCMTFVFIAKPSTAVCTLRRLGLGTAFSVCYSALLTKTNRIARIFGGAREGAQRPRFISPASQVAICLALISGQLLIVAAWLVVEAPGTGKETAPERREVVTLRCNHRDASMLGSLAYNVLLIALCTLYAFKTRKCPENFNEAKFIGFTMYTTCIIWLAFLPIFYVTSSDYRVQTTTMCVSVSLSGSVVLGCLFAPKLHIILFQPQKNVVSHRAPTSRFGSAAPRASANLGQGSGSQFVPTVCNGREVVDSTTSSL
T2 sequence (P31422 23-879): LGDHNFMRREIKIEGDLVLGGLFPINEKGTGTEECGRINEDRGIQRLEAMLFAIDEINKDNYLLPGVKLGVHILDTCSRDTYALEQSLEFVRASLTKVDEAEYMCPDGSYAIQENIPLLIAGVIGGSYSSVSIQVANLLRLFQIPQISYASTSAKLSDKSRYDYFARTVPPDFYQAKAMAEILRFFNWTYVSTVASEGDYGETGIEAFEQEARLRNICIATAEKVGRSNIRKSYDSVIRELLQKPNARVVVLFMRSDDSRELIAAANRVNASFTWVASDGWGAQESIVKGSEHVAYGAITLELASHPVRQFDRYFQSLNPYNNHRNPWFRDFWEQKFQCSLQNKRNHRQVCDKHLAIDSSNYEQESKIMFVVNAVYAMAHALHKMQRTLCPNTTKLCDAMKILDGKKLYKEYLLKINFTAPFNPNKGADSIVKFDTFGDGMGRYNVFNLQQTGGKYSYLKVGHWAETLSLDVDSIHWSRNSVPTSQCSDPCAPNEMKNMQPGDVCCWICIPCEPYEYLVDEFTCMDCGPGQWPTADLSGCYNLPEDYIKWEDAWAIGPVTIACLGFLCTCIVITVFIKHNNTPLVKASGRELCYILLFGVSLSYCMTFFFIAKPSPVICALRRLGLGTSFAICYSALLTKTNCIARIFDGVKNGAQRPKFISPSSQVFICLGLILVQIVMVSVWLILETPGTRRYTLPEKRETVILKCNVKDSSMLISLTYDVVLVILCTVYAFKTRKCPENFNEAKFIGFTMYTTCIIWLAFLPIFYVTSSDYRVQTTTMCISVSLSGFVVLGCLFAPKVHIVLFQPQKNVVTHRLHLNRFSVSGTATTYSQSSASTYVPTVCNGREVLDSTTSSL

With `CCCCC(=O)c1ccc(OCCCCCOc2cccc(C(=O)O)c2C)c(C)c1O` [Example 49, 3-[5-(3Hydroxy-2-methyl-4-pentanoylphenoxy)pentyloxy]-2-methylbenzoic acid], the EC50 in assay [1] was 0.426 µM; in assay [2] it was > 10 µM.
On to `CCCC(=O)c1ccc(OCCCCCCOc2cccc(C(=O)O)c2C)c(C)c1O` [Example 55, 3-[6-(4-Butanoyl-3-hydroxy-2-methylphenoxy)hexyloxy]-2-methylbenzoic acid], for which the EC50 in assay [1] was determined as 0.182 µM; in assay [2] it was 1.17 µM.
For `Cc1c(OCc2cccc(-c3cccc(S(N)(=O)=O)c3)c2)ccc(C(=O)CC(C)(C)C)c1O` [Example 163, 3′-((4-(3,3-Dimethylbutanoyl)-3-hydroxy-2-methylphenoxy)methyl)-[1,1′-biphenyl]-3-sulfonamide], in that order: 1.36 µM and > 30 µM.
In the same order, the values of `Cc1c(SCc2cccc(-c3cccc(C(=O)O)c3)c2)ccc(C(=O)CC(C)(C)C)c1O` [Example 165, 3′-(((4-(3,3-Dimethylbutanoyl)-3-hydroxy-2-methylphenyl)thio)methyl)-[1,1′-biphenyl]-3-carboxylic acid] are 0.337 µM and 2.53 µM.
On to `Cc1c(OCc2cccc(-c3cccc(C(=O)O)c3)c2)ccc(C(=O)c2ccccc2)c1O` [compound 66, 3′-((4-Benzoyl-3-hydroxy-2-methylphenoxy)methyl)-[1,1′-biphenyl]-3-carboxylic acid], for which the EC50 amounted to 0.769 µM in assay [1] and 2.28 µM in assay [2].
For `Cc1c(OCc2cnc(-c3cccc(C(=O)O)c3)cn2)ccc(C(=O)c2ccccc2)c1O` [compound 67, 3-(5-((4-Benzoyl-3-hydroxy-2-methylphenoxy)methyl)pyrazin-2-yl)benzoic acid], the figures for the EC50 in assay [1] and in assay [2] were 1.8 µM and 0.625 µM, respectively.
With `Cc1c(OCc2cccc(-c3cccc(C(=O)O)c3)c2)ccc(C(=O)C2CC2)c1O` [compound 68, 3′-((4-(Cyclopropanecarbonyl)-3-hydroxy-2-methylphenoxy)methyl)-[1,1′-biphenyl]-3-carboxylic acid], the EC50 in assay [1] came out at 0.186 µM; in assay [2] it was 3.73 µM.
As to `Cc1c(OCc2cnc(-c3cccc(C(=O)O)c3)cn2)ccc(C(=O)C2CC2)c1O` [compound 70, 3-(5-((4-(Cyclopropanecarbonyl)-3-hydroxy-2-methylphenoxy)methyl)pyrazin-2-yl)benzoic acid], the half-maximal effective concentration (EC50) in assay [1] amounted to 0.824 µM; in assay [2], 2.55 µM.
In the same order, the values of `Cc1c(SCCCCOc2cccc(C(=O)O)c2)ccc(C(=O)CC(C)(C)C)c1O` [compound 83] are 0.549 µM and 3.29 µM.
In the same order, the values of `Cc1c(OCCCCNc2cccc(C(=O)O)c2)ccc(C(=O)CC(C)(C)C)c1O` [compound 85, 3-((4-(4-(3,3-Dimethylbutanoyl)-3-hydroxy-2-methylphenoxy)butyl)amino)benzoic acid] are 0.128 µM and 0.81 µM.
Regarding `Cc1nc(-c2cccc(-c3cnc(COc4ccc(C(=O)CC(C)(C)C)c(O)c4C)cn3)c2)no1` [compound 86, 1-(2-Hydroxy-3-methyl-4-((5-(3-(5-methyl-1,2,4-oxadiazol-3-yl)phenyl)pyrazin-2-yl)methoxy)phenyl)-3,3-dimethylbutan-1-one], the EC50 was > 30 µM in assay [1] and > 10 µM in assay [2].
In the case of `COc1ccc(NC(=O)NS(C)(=O)=O)cc1OCCCCOc1ccc(C(=O)CC(C)(C)C)c(O)c1C` [compound 87, N-((3-(4-(4-(3,3-dimethylbutanoyl)-3-hydroxy-2-methylphenoxy)butoxy)-4-methoxyphenyl)carbamoyl)methanesulfonamide], the EC50 in assay [1] was determined as 1.32 µM; in assay [2], 2.39 µM.
On to `Cc1c(OCc2cccc(-c3cccc(NC(=O)NS(C)(=O)=O)c3)c2)ccc(C(=O)CC(C)(C)C)c1O` [compound 88, N-((3′-((4-(3,3-Dimethylbutanoyl)-3-hydroxy-2-methylphenoxy)methyl)-[1,1′-biphenyl]-3-yl)carbamoyl)methanesulfonamide], for which the EC50 in assay [1] was 1.53 µM; in assay [2] it was > 10 µM.
As to `Cc1c(OCc2cnc(-c3cccc(NC(=O)NS(C)(=O)=O)c3)cn2)ccc(C(=O)CC(C)(C)C)c1O` [compound 89, N-((3-(5-((4-(3,3-Dimethylbutanoyl)-3-hydroxy-2-methylphenoxy)methyl)pyrazin-2-yl)phenyl)carbamoyl)methanesulfonamide], the results for the EC50 in assay [1] and in assay [2] were 2.38 µM and 4.67 µM, respectively.
With `COc1ccc(C(=O)O)cc1OCc1cccc(COc2ccc(C(=O)CC(C)(C)C)c(O)c2C)c1` [compound 90, 3-((3-((4-(3,3-Dimethylbutanoyl)-3-hydroxy-2-methylphenoxy)methyl)benzyl)oxy)-4-methoxybenzoic acid], the EC50 in assay [1] is 0.322 µM; in assay [2], 0.923 µM.
For the compound `COc1ccc(C(=O)O)cc1OCCCOc1ccc(C(=O)CC(C)(C)C)c(O)c1C` [compound 92, 3-{3-[4-(3,3-Dimethylbutanoyl)-3-hydroxy-2-methylphenoxy]propoxy}-4-methoxybenzoic acid], the EC50 in assay [1] turned out to be 0.057 µM; in assay [2] it was 0.234 µM.
For `COc1ccc(C(=O)O)cc1OCCOc1ccc(C(=O)CC(C)(C)C)c(O)c1C` [compound 93, 3-{2-[4-(3,3-Dimethylbutanoyl)-3-hydroxy-2-methylphenoxy]ethoxy}-4-methoxybenzoic acid], the EC50 in assay [1] was 0.207 µM; in assay [2] it was 1.22 µM.
In the same order, the values of `CCCC(=O)c1ccc(OCOc2cccc(C(=O)O)c2C)c(C)c1O` [compound 95, 3-[(4-Butanoyl-3-hydroxy-2-methylphenoxy)methoxy]-2-methylbenzoic acid] are 0.663 µM and > 30 µM.
In the case of `COc1ccc(C(=O)O)cc1OCCCCOc1ccc(C(O)CC(C)(C)C)c(O)c1C` (stereo not drawn) [compound 96, 3-{4-[3-Hydroxy-4-(1-hydroxy-3,3-dimethylbutyl)-2-methylphenoxy]butoxy}-4-methoxybenzoic acid], the EC50 in assay [1] was 1.64 µM; in assay [2], > 10 µM.
Take `Cc1c(Oc2cccc(C(=O)O)c2)ccc(C(=O)CC(C)(C)C)c1O` [compound 97, 3-[4-(3,3-Dimethylbutanoyl)-3-hydroxy-2-methylphenoxy]benzoic acid]: the results for the EC50 in assay [1] and in assay [2] were 1.39 µM and > 10 µM, respectively.
Consider `Cc1c(OCCCCCOc2cccc(C(=O)O)c2C)cccc1C(=O)O` [compound 98, 3-[5-(3-Carboxy-2-methylphenoxy)pentyloxy]-2-methylbenzoic acid], for which the results for the EC50 in assay [1] and in assay [2] were > 10 µM and > 30 µM, respectively.
For `CCCC(=O)c1ccc(OCC(=O)c2cccc(-c3cccc(C(=O)O)c3C)c2)c(C)c1O` [compound 99, 3-{3-[2-(4-Butanoyl-3-hydroxy-2-methylphenoxy)acetyl]phenyl}-2-methylbenzoic acid], the EC50 in assay [1] is 0.167 µM; in assay [2] it was > 30 µM.
Turning to `COc1ccc(C(=O)O)cc1OCCCCOc1ccc(C(=O)C(C)(C)C)c(O)c1C` [compound 105, 3-(4-(3-Hydroxy-2-methyl-4-pivaloylphenoxy)butoxy)-4-methoxybenzoic acid], the EC50 in assay [1] turned out to be 0.288 µM; in assay [2] it was 0.743 µM.
For the compound `Cc1c(OCc2cnc(-c3ccc(C(=O)O)c(Cl)c3)cn2)ccc(C(=O)CC(C)(C)C)c1O` [compound 106, 4-(5-{[4-(3,3-Dimethylbutanoyl)-3-hydroxy-2-methylphenoxy]methyl}pyrazin-2-yl)-2-chlorobenzoic acid], the results for the concentration for a half-maximal effect (EC50) in assay [1] and in assay [2] were 0.535 µM and 0.523 µM, respectively.

Values taken from patent US20250179000A1 (Sanford Burnham Prebys Medical Discovery Institute, priority 2021, published 2025).
